One data set has as its system SCD1 mRNA. The conditions noted are these: cited from earlier work.
Data set [1] deals with C57BL6/J male mice fed on a Western Diet. The data set can be described thus: Western Diet-induced liver steatosis in mice, Compound 1 at 2 mg/kg IP for 10 days. In kind it is in vivo. As for the experimental part:
The study was performed with C57BL6/J male mice, placed on a Western Diet for 4 months, and treated for 10 days IP with Compound 1 (2 mg/kg−N=3; *P<0.05)

Data set [2] can be described thus: Oral PK in dogs (Table 1). It is filed as in vivo. The settings on record: dog, plasma, canine, 20 mg/kg oral gavage.
Data set [3] in a line: Oral PK in mice (Table 1). The conditions noted are these: mouse, plasma, C57BL/6 mice, 10 mg/kg oral gavage. In kind it is in vivo. As for the experimental part: Serum chemistry and histochemical analysis is done for both the Western Diet and MCD mouse models. Body weight and Echo-MRI is used to determine lean muscle, fat, and water content of the mice. At the end of the study, the animals are fasted overnight, and blood samples are collected for serum chemistry. A full panel of liver and metabolite biomarkers are assessed. This standard panel includes triglycerides and total cholesterol, triglycerides (TG), ALP, ALT, AST, Creatinine kinase, amylase, lipase, total bilirubin, LDH, as well as calcium, bicarbonate, potassium and sodium. Liver function tests from this panel include Aspartate aminotransferase level (AST), Alanine aminotransferase level […], GGT, Apolipoprotein, Glucose levels, and Alkaline Phosphatase (ALP), Proc-3, GAL-3, YKL-40, CK-18 and Caspase cleaved (MN-65, MN-30). Additionally, insulin, leptin and adiponectin levels are assessed as part of validation of models.
Compound 1 quantification from mouse plasma is performed using LC-MS/MS on ExionLC system equipped with Kinetex XB-C18, 2.1×50 mm (Phenomenex 00B-4496-AN) column coupled with AB Sciex 5500 QTrap instrument (equipped with TurboIonspray ionization source and Analyst software), with Acetonitrile/water/0.1% v/v formic acid as mobile phase. Blood samples collected are centrifuged at 1300 g, 2-8° C., ≥10 minutes and the collected plasma are stored either on ice (less than 1 hour) or at −80° C. until further processing. Predetermined quantities of plasma are vortexed with ice-cold acetonitrile to precipitate the protein content and centrifuged at 1300 g, 2-8° C., ≥10 minutes. Supernatant is taken in a labelled vial and evaporated at 40° C. under a gentle stream of nitrogen. The precipitates are reconstituted in LC-MS grade methanol and centrifuged at 1300 g, 2-8° C., ≥10 minutes. The supernatant is sampled for LC-MS/MS analysis. The concentration of Compound 1 is estimated by standard curve developed from plasma standards spiked with deuterium labeled Compound 1 as internal standard. Deuterium labeled Compound 1 is on-hand. In some embodiments, deuterium labeled Compound 1 has the following structure: […]

Data set [4] can be described thus: Oral PK in rats (Table 1). It is filed as in vivo. The conditions noted are these: plasma, Sprague Dawley rat, 12.5 mg/kg oral gavage.
A further data set concerns known kinases. The data set can be described thus: Off-target reactivity with kinases. In kind it is biochemical.
Data set [5] is described as follows: Non-GLP pharmacokinetic (PK) and toxicokinetic (TK) studies. In kind it is in vivo, mice, rats and dogs.
A short description of data set [6]: Oral tolerability in male and female rats. It is filed as in vivo.
A short description of data set [7]: 14-day repeat oral dosing toxicity/toxicokinetics in dogs. In kind it is in vivo. How it is done: Healthy beagles (Canis lupis familiaris) were dosed daily (oral gavage) for 14 days, and blood was collected on day 15.
A dosing regimen has been determined for Compound 1. Single dose and 7-day dosing non-GLP toxicity has been performed in rats and dogs and GLP toxicity in dogs 14 days repeat dosing. […] Dose conversion has been done via allometry based on body surface area.
These issues were attributed to atrophy of the Meibomian gland (the specialized sebaceous gland of the eyelid—see, e.g., FIG. 6). […] Mitigation the sequelae of events that occur due to dry eye is achieved by prophylactic administration of lipid eye drops and clinical eye exam every 14 days during a clinical trial.

In another data set the target is T1, SCD1 (Homo sapiens, UniProt O00767).
T1 construct: conversion of ^13C18-stearoyl CoA to ^13C18-oleoyl using LC-MS/MS in liver microsomes; from tissue; host or cells: liver microsomes
T1 sequence (O00767 1-359): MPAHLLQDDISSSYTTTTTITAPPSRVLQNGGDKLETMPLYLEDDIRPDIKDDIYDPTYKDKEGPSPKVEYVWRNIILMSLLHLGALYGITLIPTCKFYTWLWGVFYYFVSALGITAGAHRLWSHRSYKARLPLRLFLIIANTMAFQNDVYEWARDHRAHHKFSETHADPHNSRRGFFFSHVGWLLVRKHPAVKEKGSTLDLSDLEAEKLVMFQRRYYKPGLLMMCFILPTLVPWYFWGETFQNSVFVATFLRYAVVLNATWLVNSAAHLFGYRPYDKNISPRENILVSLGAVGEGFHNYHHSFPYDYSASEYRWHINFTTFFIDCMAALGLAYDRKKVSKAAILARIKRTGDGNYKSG
The data set can be described thus: SCD1 enzyme inhibition (conversion of 13C18-stearoyl CoA to 13C18-oleoyl, LC-MS/MS, liver microsomes). It is filed as biochemical. On the technique in general: Microsomes from liver hold many membrane-bound enzymes, among them those of drug oxidation.

The conditions of data set [8]: meta-analysis, off-label use; cited from earlier work.
Setting [9] is: Compound 1 alone, Western Diet mice.
The mark [10] stands for this setting: 4 hour, read-out: Drug in Plasma, 4 hour.
Where [11] appears, read: 8 hour, read-out: Drug in Plasma, 8 hour.
[12] abbreviates: 24 hour, read-out: Drug in Plasma, 24 hour.

SMILES strings stand for the structures. “Also recorded” adds a separate entry of the source.

On to `CCCCCCCCCCCCCCCCCCCC(=O)N[C@H]1CC[C@@]2(C)[C@@H](C1)C[C@@H](O)[C@@H]1[C@@H]2C[C@H](O)[C@]2(C)[C@@H]([C@H](C)CCC(=O)O)CC[C@@H]12` [Aramchol], for which the “SCD1 mRNA expression levels” value in the data set with SCD1 mRNA is recorded as “reduces expression of the mRNA for SCD1; also recorded: downregulates SCD1; also recorded: reduces SCD1 mRNA expression levels”.

Turning to `CNC(=O)c1ccnc(NC(=O)N2CCC(Oc3ccccc3Cl)CC2)c1` [Compound 1], in data set [1] (setting [9]), the plasma glucose result is “does not reduce”. Besides, the plasma triglycerides result in data set [1] (setting [9]) is on record as “does not reduce”. Further, in [1] (Western Diet 4 months, 2 mg/kg IP 10 days, H&E quantification, N=3, 2 mg/kg), the liver steatosis result was “reversal of liver steatosis; also recorded: significant reduction in liver steatohepatitis; also recorded: significantly reduced liver steatosis; also recorded: reduces liver steatosis”. In addition, the “liver function plasma markers / serum chemistry (ALP and BUN levels)” value in [1] (Western Diet 4 months, 2 mg/kg IP 10 days, N=3, 2 mg/kg) was “Significant attenuation of liver damage; also recorded: improved liver function plasma markers; also recorded: significantly improves liver function tests”. Besides, the “efficacious dose for NASH” value in data set [1] (preliminary data) is 2 mg/kg. For the same molecule, the area under the curve AUC(0-t) in data set [2] stood at 90500 ng·h/mL; in data set [3], 20900 ng·h/mL; in [4], 96400 ng·h/mL. The Cmax came out at 12500 ng/mL in [2], 4320 ng/mL in [3] and 11600 ng/mL in [4]. In addition, the Tmax in [2] worked out at 60 min; in [4] it was 30 min. The concentration at 4 h in data set [2] (setting [10]) is 8310 ng/mL; in data set [3] (setting [10]) it was around 3000 ng/mL; in [4] (setting [10]) it was 8920 ng/mL. The concentration at 8 h in data set [2] (setting [11]) was 3200 ng/mL; in data set [3] (setting [11]), around 900 ng/mL; in data set [4] (setting [11]) it was 4130 ng/mL. Further, the values for the concentration at 24 h in [2] (setting [12]), in [3] (setting [12]) and in data set [4] (setting [12]) were 212 ng/mL, around 25 ng/mL and 437 ng/mL, respectively. Moreover, in the data set on known kinases, the “off-target reactivity with kinases” value is “does not significantly react off-target with any known kinases”. Further, the oral bioavailability entry in data set [5] (in vivo, po) is listed as “good oral bioavailability; also recorded: favorable oral bioavailability; also recorded: orally bioavailable”. The tolerability result in data set [5] (mice, rats and dogs) is listed as “well-tolerated”; in data set [6] (oral dose range 50-300 mg/kg) it was “well tolerated”. Besides, the “induction of liver enzymes” value in [6] (oral 50-300 mg/kg) was “does not induce liver enzymes”. Further, the “chemistry, urinalysis, electrocardiograph and hematological parameters vs vehicle control” value in [7] (14-day GLP dog study) is reported as “no substantial differences”. In [7] (14-day recover dogs (2M/2F)), the “reversibility of eye damage” value was “Most of the damage to eyes was reversible”. The WBC entry in data set [7] (beagles, daily oral gavage 14 days) is on record as “no dramatic changes”. The “liver enzymes or cholesterol levels” value in data set [7] (beagles, daily oral gavage 14 days, blood on day 15) was “no significant changes”. Also, in data set [7] (both sexes, beagle, dog, in vivo, dogs, oral, read-out: maximum tolerated dose (MTD)), the MTD at 14 days came to 20 mg/kg. Also, in data set [7] (dog, in vivo), the “therapeutic window for the treatment of NASH” value is given as “wide therapeutic window”. Besides, the ophthalmic observations entry in data set [7] (dogs at the maximum tolerated doses) was “inflammation of the ocular surface with occasional corneal ulceration and low intraocular pressure”. Further, the dose limiting toxicity entry in data set [7] (dogs, 14-day repeat dosing, high doses) was “ocular inflammation”. In addition, the “mode of SCD1 inhibition” value at SCD1 is “inhibits enzymatic activity competitively; also recorded: competitive inhibition; also recorded: reversible”. The IC50 at SCD1 (13C18-stearoyl CoA to 13C18-oleoyl, LC-MS/MS, liver microsomes, read-out: IC50 for blocking SCD1 enzymatic activity) amounted to 1.9 nM.

Regarding `CCc1ccc(CCOc2ccc(CC3SC(=O)NC3=O)cc2)nc1` (stereo not drawn) [pioglitazone], the “efficacy in human NAFLD” value in data set [8] was “efficacious in human NAFLD”.

A word on the AUC(0-t): it is exposure summed from dosing to a finite time, without extrapolation to infinity. Usually Cmax stands for the maximum level reached in the sampled fluid or tissue. For orientation: Tmax means the time from dosing to the highest level. As a reminder, the MTD is the largest dose that counted as tolerated. One may read the IC50 as the concentration at which inhibition is half-maximal.

Source of the values: patent US20250381176A1, “SCD1 INHIBITORS FOR TREATING LIVER DISEASE” (MODULATION THERAPEUTICS, INC., priority 2022, published 2025).
